≈ marks a conversion by molar mass, not a printed value.
Key:
S. aureus ST5 [1] = assay: Vitek 2 drug sensitivity test; type: cell-based, Staphylococcus aureus; on Sensibility: key: S: Drug sensitive; R: Drug resistance
S. aureus ST59 [2] = assay: Vitek 2 drug sensitivity test; type: cell-based, Staphylococcus aureus; on Sensibility: key: S: Drug sensitive; R: Drug resistance
S. aureus ST398 [3] = assay: Vitek 2 drug sensitivity test; type: cell-based, Staphylococcus aureus; on Sensibility: key: S: Drug sensitive; R: Drug resistance
S. aureus ST5 [4] = assay: FDAA metabolic labeling susceptibility test (Cy5-DAA probe, flow cytometry); type: cell-based; details: Staphylococcus aureus; S. aureus ST5; Cy5-DAA probe, 2 hours; read-out: MIC, FDAA
Protocol: (§1) Take the colony to be tested that has been cultured overnight on the plate and fully mix it in normal saline to make a uniform bacterial solution. Dilute it into Cation-Adjusted Mueller Hinton Broth (CAMHB) culture medium to make a bacterial solution with OD600=0.05. • 2. Add 45 μl antibiotic solutions of different concentrations to 96-well plates (see Table 1 for antibiotic concentration gradient settings). • 3. Add 50 μl of the bacterial solution prepared in step 1 to the 96-well plate and mix well. • 4. Add 5 μl of 10 mM Cy5-DAA probe (final concentration 0.15 mM, see FIG. 1 for its structure) into each well, mix well, and cultivate in dark for 2 hours. • 5. Add 200 μl After PBS solution is diluted, the fluorescence intensity of each sample is detected by flow cytometry. The flow detection results are shown in FIG. 4-5, showing the curve of the change of antibiotic concentration gradient and fluorescence intensity. The MIC (minimum inhibitory concentration) can be obtained by referring to this curve.

S. aureus ST398 [5] = assay: as above; type: cell-based; details: Staphylococcus aureus; S. aureus ST398; Cy5-DAA probe, 2 hours; read-out: MIC, FDAA
Protocol: as §1

S. aureus ST59 [6] = assay: as above; type: cell-based; details: Staphylococcus aureus; S. aureus ST59; Cy5-DAA probe, 2 hours; read-out: MIC, FDAA
Protocol: as §1

K. pneumoniae Kp9 [7] = assay: FaAST (FDAA metabolic labeling); type: cell-based, Klebsiella pneumoniae; details: unit assumed
Protocol: (§2) The specific experimental steps are as follows: • 1. Take the colony to be tested that has been cultured overnight on the plate and fully mix it in normal saline to make a uniform bacterial solution. Dilute it into CAMHB medium to make a bacterial solution with OD600=0.05. • 2. Add 45 μl antibiotic solutions to be tested of different concentrations to 96-well plates (see Table 3 for antibiotic concentration gradient settings). • 3. Add 50 μl of bacterial solution prepared in Step 1 to the 96-well plate and mix well. • 4.5 μl of 10 mM Cy5-DAA probe was added to each well (final concentration was 0.15 mM, and its structure was shown in FIG. 1). After mixing, the probe was incubated for 2 hours in the dark. • 5. After dilution with 200 μl PBS solution, the fluorescence intensity of each sample was detected by flow cytometry.

K. pneumoniae Kp6 [8] = assay: FaAST (FDAA metabolic labeling); type: cell-based, Klebsiella pneumoniae; details: unit assumed
Protocol: as §2

[9] = tested on: alveolar lavage fluid sample 0226, K. pneumoniae; assay: FaAST (FDAA) susceptibility test of patient alveolar lavage fluid; type: cell-based, Klebsiella pneumoniae; details: unit assumed
Protocol: (§3) With reference to the flow chart of the rapid detection method of antimicrobial susceptibility test based on FDAA metabolic markers shown in FIG. 3, FDAA is used for the detection of antimicrobial susceptibility test of alveolar lavage fluid. The specific experimental steps are as follows: • 1. Mix bronchoalveolar lavage fluid (BALF, 10 ml) of patients with hospital acquired pneumonia with cation regulated broth medium (CAMHB, 10 ml) of twice the concentration to prepare the bacterial fluid to be tested. • 2. Add 45 μl antibiotic solutions of different concentrations to the 96-well plate separately (see Table 1 for antibiotic concentration gradient settings). • 3. Add 50 μl of the bacterial solution prepared in step 1 to the 96-well plate and mix well. • 4. Add 5 μl of 10 mM Cy5-DAA probe (final concentration 0.15 mM, see FIG. 1 for its structure) into each well, mix well, and then cultivate in dark for 2 hours. • 5. Add 200 μl PBS solution for dilution, and then use flow cytometry to detect the fluorescence intensity of each sample.
(§4) The results of antimicrobial susceptibility test of alveolar lavage fluid of seven patients using FDAA and BMD methods are shown in the following table. The drug-resistant bacteria are shown in bold.

[10] = tested on: alveolar lavage fluid sample 0203, K. pneumoniae; assay: as above; type: cell-based, Klebsiella pneumoniae; details: unit assumed
Protocol: as §3, §4

[11] = tested on: alveolar lavage fluid sample 0226, K. pneumoniae; assay: BMD susceptibility test of patient alveolar lavage fluid; type: cell-based, Klebsiella pneumoniae; details: unit assumed
From the text: as §4

[12] = tested on: alveolar lavage fluid sample 0203, K. pneumoniae; assay: as above; type: cell-based, Klebsiella pneumoniae; details: unit assumed
From the text: as §4

[13] = tested on: alveolar lavage fluid sample 0130, A. baumannii; assay: FaAST (FDAA) susceptibility test of patient alveolar lavage fluid; type: cell-based, Acinetobacter baumannii; details: unit assumed
Protocol: as §3, §4

[14] = tested on: alveolar lavage fluid sample 0219, A. baumannii; assay: as above; type: cell-based, Acinetobacter baumannii; details: unit assumed
Protocol: as §3, §4

[15] = tested on: alveolar lavage fluid sample 0206, A. baumannii; assay: as above; type: cell-based, Acinetobacter baumannii; details: unit assumed
Protocol: as §3, §4

[16] = tested on: alveolar lavage fluid sample 0204, A. baumannii; assay: as above; type: cell-based, Acinetobacter baumannii; details: unit assumed
Protocol: as §3, §4

E.coli 1146 [17] = assay: FDAA metabolic labeling susceptibility test (Cy5-DAA probe, flow cytometry); type: cell-based, Escherichia coli; details: Escherichia coli, 1146, 2 h, read-out: MIC, FDAA
Protocol: as §2, with “cytometry. The flow detection results are shown in the attached FIG. 4-5, showing the curve of antibiotic concentration gradient and fluorescence intensity, and the MIC (minimum inhibitory concentration) is obtained by referring to this curve.” for “cytometry.”

E.coli 1113 [18] = assay: as above; type: cell-based, Escherichia coli; details: Escherichia coli, 1113, 2 h, read-out: MIC, FDAA
Protocol: as §2, with “cytometry. The flow detection results are shown in the attached FIG. 4-5, showing the curve of antibiotic concentration gradient and fluorescence intensity, and the MIC (minimum inhibitory concentration) is obtained by referring to this curve.” for “cytometry.”

A. baumannii Ab16 [19] = assay: BMD susceptibility test; type: cell-based, Acinetobacter baumannii; details: unit assumed
K. pneumoniae Kp9 [20] = assay: BMD susceptibility test; type: cell-based, Klebsiella pneumoniae; details: unit assumed
[21] = tested on: alveolar lavage fluid sample 0204, A. baumannii; assay: BMD susceptibility test of patient alveolar lavage fluid; type: cell-based, Acinetobacter baumannii; details: unit assumed
E. coli Ec13 [22] = assay: FaAST (FDAA metabolic labeling); type: cell-based, Escherichia coli; details: unit assumed
Protocol: as §2

A. baumannii Ab19 [23] = assay: BMD susceptibility test; type: cell-based, Acinetobacter baumannii; details: unit assumed
A. baumannii Ab19 [24] = assay: FaAST (FDAA metabolic labeling); type: cell-based, Acinetobacter baumannii; details: unit assumed
Protocol: as §2, with “cytometry. The flow detection results are shown in the attached FIG. 4-5, showing the curve of antibiotic concentration gradient and fluorescence intensity, and the MIC (minimum inhibitory concentration) is obtained by referring to this curve.” for “cytometry.”
(§5) Antibiotic resistant strains are shown in bold in the table below.

K. pneumoniae Kp6 [25] = assay: BMD susceptibility test; type: cell-based, Klebsiella pneumoniae; details: unit assumed
Ec ATCC 25922 [26] = details: cited from earlier work
[27] = tested on: alveolar lavage fluid sample 0130, A. baumannii; assay: BMD susceptibility test of patient alveolar lavage fluid; type: cell-based, Acinetobacter baumannii; details: unit assumed
From the text: as §4

[28] = tested on: alveolar lavage fluid sample 0219, A. baumannii; assay: as above; type: cell-based, Acinetobacter baumannii; details: unit assumed
From the text: as §4

[29] = tested on: alveolar lavage fluid sample 0206, A. baumannii; assay: as above; type: cell-based, Acinetobacter baumannii; details: unit assumed
From the text: as §4

E.coli 1113 [30] = assay: Vitek 2 drug sensitivity test; type: cell-based, Escherichia coli; on Sensibility: key: S: Drug sensitive; R: Drug resistance
[31] = tested on: bacteria contained in alveolar lavage fluid; assay: FDAA metabolic labeling susceptibility test of alveolar lavage fluid (Cy5-DAA probe); type: cell-based; details: alveolar lavage fluid of patients with hospital acquired pneumonia, 2 hours
Protocol: as §3

E.coli 1146 [32] = assay: Vitek 2 drug sensitivity test; type: cell-based, Escherichia coli; on Sensibility: key: S: Drug sensitive; R: Drug resistance
E. coli Ec13 [33] = assay: BMD susceptibility test; type: cell-based, Escherichia coli; details: unit assumed
Ec ATCC 25922 [34] = assay: BMD susceptibility test; type: cell-based, Escherichia coli; details: unit assumed
E. coli Ec11 [35] = assay: FaAST (FDAA metabolic labeling); type: cell-based, Escherichia coli; details: unit assumed
Protocol: as §2, with “cytometry. The flow detection results are shown in the attached FIG. 4-5, showing the curve of antibiotic concentration gradient and fluorescence intensity, and the MIC (minimum inhibitory concentration) is obtained by referring to this curve.” for “cytometry.”
as §5

Ec ATCC 25922 [36] = assay: FaAST (FDAA metabolic labeling); type: cell-based, Escherichia coli; details: unit assumed
Protocol: as §2, with “cytometry. The flow detection results are shown in the attached FIG. 4-5, showing the curve of antibiotic concentration gradient and fluorescence intensity, and the MIC (minimum inhibitory concentration) is obtained by referring to this curve.” for “cytometry.”
as §5

[37] = tested on: bacteria contained in alveolar lavage fluid; assay: Vitek 2 drug sensitivity test of alveolar lavage fluid; type: cell-based; on Sensibility: key: S: Drug sensitive; R: Drug resistance
A. baumannii Ab16 [38] = assay: FaAST (FDAA metabolic labeling); type: cell-based, Acinetobacter baumannii; details: unit assumed
Protocol: as §2

E. coli Ec11 [39] = assay: BMD susceptibility test; type: cell-based, Escherichia coli; details: unit assumed

## Cc1onc(-c2ccccc2)c1C(=O)N[C@@H]1C(=O)N2[C@@H]1SC(C)(C)[C@@H]2C(=O)O [OX, oxacillin]
S. aureus ST5 [1]
  Sensibility: R
S. aureus ST5 [1]; Staphylococcus aureus
  MIC: 256 mg/L (≈ 638 µM)
S. aureus ST59 [2]
  Sensibility: R
S. aureus ST59 [2]; Staphylococcus aureus
  MIC: 16 mg/L (≈ 39.9 µM)
S. aureus ST398 [3]
  Sensibility: S
S. aureus ST398 [3]; Staphylococcus aureus
  MIC: ≤ 0.25 mg/L
S. aureus ST5 [4]
  MIC: ≥ 1020 mg/L
S. aureus ST398 [5]
  MIC: 0.25 mg/L (≈ 0.623 µM)
S. aureus ST59 [6]
  MIC: 32 mg/L (≈ 79.7 µM)

## CN(C)c1cc(NC(=O)CNC(C)(C)C)c(O)c2c1C[C@H]1C[C@H]3[C@H](N(C)C)C(O)=C(C(N)=O)C(=O)[C@@]3(O)C(O)=C1C2=O [Tigecycline, tigecycline]
K. pneumoniae Kp9 [7]
  FaAST (MIC): 0.25 mg/L
K. pneumoniae Kp6 [8]
  FaAST (MIC): ≤ 0.25 mg/L
[9]
  FaAST (MIC): 0.5 mg/L
[10]
  FaAST (MIC): 0.125 mg/L
[11]
  BMD (MIC): 1 mg/L
[12]
  BMD (MIC): 1 mg/L
[13]
  FaAST (MIC): 2 mg/L
[14]
  FaAST (MIC): 64 mg/L
[15]
  FaAST (MIC): 8 mg/L
[16]
  FaAST (MIC): 0.5 mg/L
E.coli 1146 [17]
  MIC: 0.25 mg/L (≈ 0.427 µM)
E.coli 1113 [18]
  MIC: 1 mg/L (≈ 1.71 µM)
A. baumannii Ab16 [19]
  BMD (MIC): ≤ 0.25 mg/L
K. pneumoniae Kp9 [20]
  BMD (MIC): 0.5 mg/L
[21]
  BMD (MIC): 0.5 mg/L
E. coli Ec13 [22]
  FaAST (MIC): ≤ 0.25 mg/L
A. baumannii Ab19 [23]
  BMD (MIC): ≤ 0.25 mg/L
A. baumannii Ab19 [24]
  FaAST (MIC): 0.5 mg/L
K. pneumoniae Kp6 [25]
  BMD (MIC): ≤ 0.25 mg/L
Ec ATCC 25922 [26]
  CLSI QC range: 0.03-0.25
[27]
  BMD (MIC): 2 mg/L
[28]
  BMD (MIC): 1 mg/L
[29]
  BMD (MIC): 1 mg/L
E.coli 1113 [30]
  MIC, Vitek 2: < 1 mg/L
  Sensibility: S
[31]
  MIC, FDAA: 4 mg/L (≈ 6.83 µM)
E.coli 1146 [32]
  Sensibility: S
E.coli 1146 [32]; Escherichia coli
  MIC: ≤ 0.25 mg/L
E. coli Ec13 [33]
  BMD (MIC): ≤ 0.25 mg/L
Ec ATCC 25922 [34]
  BMD (MIC): ≤ 0.25 mg/L
E. coli Ec11 [35]
  FaAST (MIC): ≤ 0.25 mg/L
Ec ATCC 25922 [36]
  FaAST (MIC): ≤ 0.25 mg/L
[37]
  MIC: 2 mg/L (≈ 3.41 µM)
  Sensibility: S
A. baumannii Ab16 [38]
  FaAST (MIC): ≤ 0.25 mg/L
E. coli Ec11 [39]
  BMD (MIC): ≤ 0.25 mg/L

From patent US20240240224A1, “FLUORESCENT D-TYPE AMINO ACID METABOLISM MARKER-BASED METHOD FOR DETECTING ANTIBACTERIAL DRUG SENSITIVITY TEST” (priority 2020, published 2024)
